Type in all cases: cell-based
For experiment [1], the target named is T1, recombinant human ghrelin receptor (HEK293/GRLN) (Homo sapiens, UniProt Q92847).
T1 construct: expressed in transfected cells
The experiment in a line: Ghrelin inverse agonist potency (EC50) with IP-1 (IP-One HTRF) assay. Particulars: IP-1 assay. Summed up: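 IP-1 accumulation was measured by HTRF (IP1-d2/Tb-cryptate, 620/665 nm read after 1 hour at room temperature) following 1 hour of compound treatment at 37° C. Cells were HEK293 stably expressing human ghrelin receptor, plated a day earlier on Matrigel. Inverse agonist potency was reported as EC50.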
On the technique in general: In TR-FRET formats the signal depends on donor and acceptor labels being close together.

The target of experiment [2] is T2, GHSR-1a (HEK293/GHSR1a cell line) (Homo sapiens, UniProt Q92847).
T2 construct: expressed in transfected cells; host or cells: HEK293/GHSR1a cell line
T2 sequence (Q92847 whole entry): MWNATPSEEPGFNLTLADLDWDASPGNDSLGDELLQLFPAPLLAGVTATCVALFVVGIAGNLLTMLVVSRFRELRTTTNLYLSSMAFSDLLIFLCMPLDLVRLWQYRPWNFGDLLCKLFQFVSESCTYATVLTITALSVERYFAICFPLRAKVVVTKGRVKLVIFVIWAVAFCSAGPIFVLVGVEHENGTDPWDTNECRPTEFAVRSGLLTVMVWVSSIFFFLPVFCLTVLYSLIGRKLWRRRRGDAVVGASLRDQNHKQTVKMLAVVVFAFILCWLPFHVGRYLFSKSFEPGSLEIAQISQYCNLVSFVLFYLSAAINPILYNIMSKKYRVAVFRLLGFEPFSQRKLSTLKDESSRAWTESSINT
The experiment in a line: Ghrelin agonist potency (EC50) with calcium FLIPR assay. The method, boiled down:
(§1)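 Fluorescence read-out of intracellular calcium over 2 min. Agonist EC50 came from compound added alone at t=20 sec. Antagonist IC50 came from the reduction of the response to 10 nM ghrelin co-added with compound at t=20 sec. Both were fitted from dose-response data.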

Experiment [3] deals with T2, GHSR-1a (HEK293/GHSR1a cell line). The experiment in a line: Ghrelin antagonist potency (IC50) with calcium FLIPR assay, ghrelin 10 nM. The method, boiled down: as §1
The mark [4] stands for this setting: HEK293/GRLN, read-out: Activity EC50 (ghrelin inverse agonist potency).
Where [5] appears, read: HEK293/GHSR1a, read-out: Activity EC50/EMax: EC50 (ghrelin agonist potency).
Where [6] appears, read: HEK293/GHSR1a, ghrelin 10 nM, read-out: Activity IC50 (ghrelin antagonist potency).
Where [7] appears, read: ghrelin inverse agonist potency, read-out: Activity EC50.
Setting [8] is: ghrelin agonist potency, read-out: Activity EC50/EMax.
Where [9] appears, read: ghrelin antagonist potency, read-out: Activity IC50.
Setting [10] is: heading: Activity EC50/EMax, ghrelin agonist potency, read-out: Activity EC50/EMax.

Where two headings read alike, the source gives them in different places.

T1 sequence (Q92847 whole entry): as above

In the case of `COc1cc(S(=O)(=O)Cc2ccc3c(c2)CC(C)N(C)C3)ccc1NC(=O)NC(C)c1ccccc1` (stereo not drawn) [H1440, 1-(4-(((2,3-dimethyl-1,2,3,4-tetrahydroisoquinolin-6-yl)methyl)sulfonyl)-2-methoxyphenyl)-3-(1-phenylethyl)urea], the EC50 is 2.9 nM in experiment [1] (setting [4]) and over 30000 nM in experiment [2] (setting [5]). The IC50 in experiment [3] (setting [6]) turned out to be 4.4 nM.
The corresponding values for `COc1ccc(C(C)NC(=O)Nc2ccc(S(=O)(=O)Cc3ccc4c(c3)CCN(C)C4)cc2OC)cc1` (stereo not drawn) [H1442, 1-(2-methoxy-4-(((2-methyl-1,2,3,4-tetrahydroisoquinolin-6-yl)methyl)sulfonyl)phenyl)-3-(1-(4-methoxyphenyl)ethyl)urea] are 16.4 nM, over 30000 nM and 58.1 nM.
`COc1cc(S(=O)(=O)Cc2ccc3c(c2)CCNC3)ccc1NC(=O)N(C)C(C)c1cccc(Cl)c1Cl` (stereo not drawn) [H1443, 1-(1-(2,3-dichlorophenyl)ethyl)-3-(2-methoxy-4-(((1,2,3,4-tetrahydroisoquinolin-6-yl)methyl)sulfonyl)phenyl)-1-methylurea]: the EC50 in experiment [1] (setting [4]) is 85.8 nM; in experiment [2] (setting [5]), over 30000 nM. Further, in experiment [3] (setting [6]), the IC50 amounted to 68 nM.
As to `COc1ccc(C(C)NC(=O)Nc2ccc(S(=O)(=O)Cc3ccc4c(c3)CNC4)cc2)cc1OC` (stereo not drawn) [H1444, 1-(1-(3,4-dimethoxyphenyl)ethyl)-3-(4-((isoindolin-5-ylmethyl)sulfonyl)phenyl)urea], the EC50 was 185 nM in experiment [1] (setting [4]) and over 30000 nM in experiment [2] (setting [5]). Moreover, the IC50 in experiment [3] (setting [6]) turned out to be 2860 nM.
Take `COc1ccc(C(C)NC(=O)Nc2ccc(S(=O)(=O)Cc3ccc4c(c3)CN(C)C4)cc2)cc1OC` (stereo not drawn) [H1449, 1-(1-(3,4-dimethoxyphenyl)ethyl)-3-(4-(((2-methylisoindolin-5-yl)methyl)sulfonyl)phenyl)urea]: the EC50 is 928 nM in experiment [1] (setting [4]) and over 30000 nM in experiment [2] (setting [5]). For the same molecule, the IC50 in experiment [3] (setting [6]) was 4170 nM.
The corresponding values for `COc1cccc(OC)c1C(C)NC(=O)Nc1ccc(S(=O)(=O)Cc2ccc3c(c2)CNC3)cc1` (stereo not drawn) [H1450, 1-(1-(2,6-dimethoxyphenyl)ethyl)-3-(4-((isoindolin-5-ylmethyl)sulfonyl)phenyl)urea] are 182 nM, over 30000 nM and 290 nM.
In the same order, the values of `COc1cccc(OC)c1C(C)NC(=O)Nc1ccc(S(=O)(=O)Cc2ccc3c(c2)CN(C)C3)cc1` (stereo not drawn) [H1451, 1-(1-(2,6-dimethoxyphenyl)ethyl)-3-(4-(((2-methylisoindolin-5-yl)methyl)sulfonyl)phenyl)urea] are 33.3 nM, over 30000 nM and 68.5 nM.
For the molecule `CC(NC(=O)Nc1ccc(S(=O)(=O)Cc2ccc3c(c2)CNC3)cc1)c1ccc2c(c1)OCO2` (stereo not drawn) [H1452, 1-(1-(benzo[d][1,3]dioxol-5-yl)ethyl)-3-(4-((isoindolin-5-ylmethyl)sulfonyl)phenyl)urea], the values for the EC50 in experiment [1] (setting [4]) and in experiment [2] (setting [5]) were 34.8 nM and over 30000 nM, respectively. In addition, the IC50 in experiment [3] (setting [6]) was found to be 87 nM.
The corresponding values for `CC(NC(=O)Nc1ccc(S(=O)(=O)Cc2ccc3c(c2)CN(C)C3)cc1)c1ccc2c(c1)OCO2` (stereo not drawn) [H1453, 1-(1-(benzo[d][1,3]dioxol-5-yl)ethyl)-3-(4-(((2-methylisoindolin-5-yl)methyl)sulfonyl)phenyl)urea] are 46.8 nM, over 30000 nM and 109 nM.
Consider `NC(=O)C(NC(=O)Nc1ccc(S(=O)(=O)Cc2ccc3c(c2)CNC3)cc1)c1ccccc1` (stereo not drawn) [H1457, 2-(3-(4-((isoindolin-5-ylmethyl)sulfonyl)phenyl)ureido)-2-phenylacetamide], for which the EC50 in experiment [1] (setting [7]) was 123 nM; in experiment [2] (setting [8]) it was over 30000 nM. Also, the IC50 in experiment [3] (setting [9]) came to 16600 nM.
In the case of `CC(NC(=O)N(O)c1ccc(S(=O)(=O)Cc2ccc3c(c2)CN(C)C3)cc1)c1ccccc1` (stereo not drawn) [H1458, 1-hydroxy-1-(4-(((2-methylisoindolin-5-yl)methyl)sulfonyl)phenyl)-3-(1-phenylethyl)urea], the EC50 in experiment [1] (setting [7]) was 288 nM; in experiment [2] (setting [8]) it was over 30000 nM. Moreover, the IC50 in experiment [3] (setting [9]) turned out to be 1170 nM.
The corresponding values for `CC(c1ccccc1)N(C)C(=O)Nc1ccc(S(=O)(=O)Cc2ccc3c(c2)CNC3)cc1O` (stereo not drawn) [H1460, 3-(2-hydroxy-4-((isoindolin-5-ylmethyl)sulfonyl)phenyl)-1-methyl-1-(1-phenylethyl)urea] are 163 nM, over 30000 nM and 536 nM.
Consider `COc1cc(S(=O)(=O)Cc2nc3c(s2)CNC3)ccc1NC(=O)N[C@@H](C)c1ccccc1` [H1463, (S)-1-(4-(((5,6-dihydro-4H-pyrrolo[3,4-d]thiazol-2-yl)methyl)sulfonyl)-2-methoxyphenyl)-3-(1-phenylethyl)urea], for which the EC50 in experiment [1] (setting [7]) is 289 nM; in experiment [2] (setting [8]), over 30000 nM. In addition, the IC50 in experiment [3] (setting [9]) stood at 1150 nM.
Regarding `COc1cc(S(=O)(=O)Cc2nc3c(s2)CN(C)C3)ccc1NC(=O)N[C@@H](C)c1ccccc1` [H1464, (S)-1-(2-methoxy-4-(((5-methyl-5,6-dihydro-4H-pyrrolo[3,4-d]thiazol-2-yl)methyl)sulfonyl)phenyl)-3-(1-phenylethyl)urea], the values for the EC50 in experiment [1] (setting [7]) and in experiment [2] (setting [8]) were 290 nM and over 30000 nM, respectively. The IC50 in experiment [3] (setting [9]) came out at 2960 nM.
As for `C[C@H](NC(=O)Nc1ccc(S(=O)(=O)Cc2nc3c(s2)CNC3)cc1)c1ccccc1` [H1465, (S)-1-(4-(((5,6-dihydro-4H-pyrrolo[3,4-d]thiazol-2-yl)methyl)sulfonyl)phenyl)-3-(1-phenylethyl)urea], the EC50 in experiment [1] (setting [7]) is 678 nM; in experiment [2] (setting [8]), over 30000 nM. Besides, the IC50 in experiment [3] (setting [9]) stood at 5290 nM.
On to `COC(=O)c1cc(S(=O)(=O)Cc2ccc3c(c2)CN(C)C3)ccc1NC(=O)NC(C)c1ccccc1` (stereo not drawn) [H1466, methyl 5-(((2-methylisoindolin-5-yl)methyl)sulfonyl)-2-(3-(1-phenylethyl)ureido)benzoate], for which the EC50 was 16.8 nM in experiment [1] (setting [7]) and over 30000 nM in experiment [2] (setting [8]). In experiment [3] (setting [9]), the IC50 came to 72.4 nM.
In the same order, the values of `CC(NC(=O)Nc1ccc(S(=O)(=O)Cc2ccc3c(c2)CNC3)cc1CO)c1ccccc1` (stereo not drawn) [H1467, 1-(2-(hydroxymethyl)-4-((isoindolin-5-ylmethyl)sulfonyl)phenyl)-3-(1-phenylethyl)urea] are 19.7 nM, over 30000 nM and 121 nM.
Turning to `CC(NC(=O)Nc1ccc(S(=O)(=O)Cc2ccc3c(c2)CN(C)C3)cc1CO)c1ccccc1` (stereo not drawn) [H1468, 1-(2-(hydroxymethyl)-4-(((2-methylisoindolin-5-yl)methyl)sulfonyl)phenyl)-3-(1-phenylethyl)urea], the EC50 is 18.2 nM in experiment [1] (setting [7]) and over 30000 nM in experiment [2] (setting [8]). Also, in experiment [3] (setting [9]), the IC50 was 80.6 nM.
In the case of `CC(c1ccccc1)n1c(=O)[nH]c2ccc(S(=O)(=O)Cc3ccc4c(c3)CNC4)cc2c1=O` (stereo not drawn) [H1469, 6-((isoindolin-5-ylmethyl)sulfonyl)-3-(1-phenylethyl)quinazoline-2,4(1H,3H)-dione], the figures for the EC50 in experiment [1] (setting [7]) and in experiment [2] (setting [10]) were 26 nM and 110 nM, respectively. Further, the IC50 in experiment [3] (setting [9]) amounted to 110 nM.
Consider `CC(c1ccccc1)n1c(=O)[nH]c2ccc(S(=O)(=O)Cc3ccc4c(c3)CN(C)C4)cc2c1=O` (stereo not drawn) [H1470, 6-(((2-methylisoindolin-5-yl)methyl)sulfonyl)-3-(1-phenylethyl)quinazoline-2,4(1H,3H)-dione], for which the EC50 in experiment [1] (setting [7]) was 22.3 nM; in experiment [2] (setting [10]), 227 nM. In addition, the IC50 in experiment [3] (setting [9]) turned out to be 483 nM.
For `CC(c1ccccc1)N(O)C(=O)Nc1ccc(S(=O)(=O)Cc2ccc3c(c2)CN(C)C3)cc1` (stereo not drawn) [H1471, 1-hydroxy-3-(4-(((2-methylisoindolin-5-yl)methyl)sulfonyl)phenyl)-1-(1-phenylethyl)urea], the EC50 was 3.89 nM in experiment [1] (setting [7]) and over 30000 nM in experiment [2] (setting [8]). Also, in experiment [3] (setting [9]), the IC50 turned out to be 11.8 nM.
Consider `CC(NC(=O)N(O)c1ccc(S(=O)(=O)Cc2ccc3c(c2)CNC3)cc1)c1ccccc1` (stereo not drawn) [H1473, 1-hydroxy-1-(4-((isoindolin-5-ylmethyl)sulfonyl)phenyl)-3-(1-phenylethyl)urea], for which the EC50 is 515 nM in experiment [1] (setting [7]) and over 30000 nM in experiment [2] (setting [8]). In experiment [3] (setting [9]), the IC50 was found to be 2240 nM.
The corresponding values for `CC(c1ccccc1)N(C)C(=O)Nc1ccc(S(=O)(=O)Cc2ccc3c(c2)CN(C)C3)cc1O` (stereo not drawn) [H1474, 3-(2-hydroxy-4-(((2-methylisoindolin-5-yl)methyl)sulfonyl)phenyl)-1-methyl-1-(1-phenylethyl)urea] are 133 nM, over 30000 nM and 700 nM.
The corresponding values for `COc1ccc(C(C)NC(=O)Nc2ccc(S(=O)(=O)Cc3ccc4c(c3)CNC4)cc2)cc1Cl` (stereo not drawn) [H1475, 1-(1-(3-chloro-4-methoxyphenyl)ethyl)-3-(4-((isoindolin-5-ylmethyl)sulfonyl)phenyl)urea] are 18.9 nM, over 30000 nM and 32.2 nM.
In the same order, the values of `COc1ccc(C(C)NC(=O)Nc2ccc(S(=O)(=O)Cc3ccc4c(c3)CN(C)C4)cc2)cc1Cl` (stereo not drawn) [H1476, 1-(1-(3-chloro-4-methoxyphenyl)ethyl)-3-(4-(((2-methylisoindolin-5-yl)methyl)sulfonyl)phenyl)urea] are 24.1 nM, over 30000 nM and 42.6 nM.

By IC50 is commonly meant the point on the concentration scale where inhibition reaches its midpoint.

These data come from patent publication US10501479B2, “Benzenesulfonyl-asymmetric ureas and medical uses thereof” (HELSINN HEALTHCARE SA, priority 2016, dated 2019).
